Here are results for four compounds from article PMC9321742 (Viruses, 2022).

Data set [1] has as its system SARS-CoV-2 delta. Put plainly: microbe, parasite or virus in culture. The data set is classed as cell-based. To be noted: VERO E6, plus 0.5 µM P-gp inhibitor CP-100356, MOI 0.005, 72 h, read-out: IC50 Delta Mean ± SD.
For data set [2], the system named is SARS-CoV-2 omicron BA.1. Put plainly: microbe, parasite or virus in culture. Type of data set: cell-based. To be noted: read-out: IC50 BA.1 Mean ± SD.
For data set [3], the system named is SARS-CoV-2 omicron BA.2. Put plainly: microbe, parasite or virus in culture. The data set is classed as cell-based. The following applies: read-out: IC50 BA.2 Mean ± SD.
In data set [4] the test system is VERO E6 cells.
A short description of data set [5]: in vitro. The following applies: African green monkey.
Where [6] appears, read: Severe acute respiratory syndrome coronavirus 2, Vero C1008.
The mark [7] stands for this setting: Severe acute respiratory syndrome coronavirus 2, Vero C1008, VERO E6, plus 0.5 µM P-gp inhibitor CP-100356, MOI 0.005, 72 h.

Like-named read-outs stand apart in the source and are kept apart here.

Regarding `O=c1nc(NO)ccn1[C@@H]1O[C@H](CO)[C@@H](O)[C@H]1O` [EIDD-1931], the figures for the IC50 in data set [1], in data set [2] and in data set [3] were 1500 ± 700 nM, 1000 ± 500 nM and 800 ± 10 nM, respectively. For the same compound, the CC50 in data set [4] was 43300 ± 6000 nM.
Consider `CC(C)(C)[C@H](NC(=O)C(F)(F)F)C(=O)N1C[C@H]2[C@@H]([C@H]1C(=O)N[C@H](C#N)C[C@@H]1CCNC1=O)C2(C)C` [Nirmatrelvir], for which the IC50 in data set [1] (setting [6]) stood at 60 ± 10 nM; in data set [2] (setting [7]) it was 40 ± 20 nM; in data set [3] (setting [7]), 40 ± 10 nM. The results for the CC50 in data set [4] (African green monkey) and in data set [5] were 40700 ± 4400 nM and 69600 ± 1000 nM, respectively.
Take `CCC(CC)COC(=O)[C@H](C)N[P@](=O)(OC[C@H]1O[C@@](C#N)(c2ccc3c(N)ncnn23)[C@H](O)[C@@H]1O)Oc1ccccc1` [Remdesivir]: the IC50 in data set [1] (setting [6]) stood at 110 ± 80 nM; in data set [2] (setting [7]), 50 ± 40 nM; in data set [3] (setting [7]), 80 ± 10 nM.
For the compound CP-100356 hydrochloride, the “Decrease of cell viability” value in data set [4] was found to be 20%.
